From US7671058B2, “N-(3,4-disubstituted phenyl) salicylamide derivatives” (Institute of Medicinal Molecular Design, Inc., priority 2006, dated 2010)
Where two headings read alike, the source gives them in different places.

Experiments:
[1] = test system: STAT6; test: STAT6 inhibition test: (GLS)x8/pTA-Luc luciferase reporter in U2-OS cells stimulated with human IL-4; type: cell-based; conditions: human IL-4 40 ng/mL; for Inhibition Rate of STAT6 (%) / inhibition at 2 µM: compound 2 μM, 8 hours; for inhibition at 2 µM: read-out: Inhibition Rate of STAT6 (%); for IC50: from inhibition rates at 1, 0.1, 0.01 and 0.001 μM, read-out: IC50 against activation of STAT6
From the text: (1) Construction of a STAT6 Reporter Plasmid
The Oligonucleotides (SEQ ID: 1, 2) containing two copies of STAT6 binding sequences (refer to J. Biol. Chem., vol. 276, No. 9, pp. 6675-6688 (2001).) were synthesized, and integrated into the enhancer region of the reporter plasmid pTA-Luc Vector (CLONTECH Laboratories, Inc.) at the restriction enzyme BgIII site.
When the oligonucleotide is integrated in positive direction into the plasmid, the upstream BglII site is not reconstructed. Therefore, STAT6 binding sequences can be increased by repeating integration of the oligonucleotide at the restriction enzyme BglII site.
In the present test, a plasmid including eight integrated STAT6 binding sequences was constructed and provided for the reporter assay as (GLS)x8/pTA-Luc. Confirmation of the sequences was carried out using an automated fluorescence sequencer (Model 310 (Applied Biosystems)).
(2) Transfection into U2-OS Cells and Inhibition Test for STAT6 Activation
U2-OS cells were seeded to at 2×10^4 cells/well in 96-well culture plates, and transfection was carried out using FuGENE 6 Transfection Reagent (Roche Diagnostics GmbH). The procedures of the transfection are shown below.
11 μg of reporter plasmid ((GLS)x8/pTA-Luc) and 1.1 μg of pCMV β (CLONTECH Laboratories, Inc.) were mixed in 1.1 mL of OPTI-MEM I medium (GIBCO BRL) (solution (A)).
33 μL of FuGENE 6 Transfection Reagent was mixed in 1.1 mL of OPTI-MEM I medium (solution (B)).
(§1) The above solution (A) and solution (B) were mixed, let them stand for 15 minutes at room temperature, then, 8.8 mL of OPTI-MEM I medium was added and diluted.
To this transfection solution, U2-OS cell suspension (11 mL) in McCoy's 5A medium (GIBCO BRL) containing 10% Fetal Bovine Serum (FBS; GIBCO BRL) at 2×10^5 cells/mL was added and well mixed.
(§2) 0.2 mL of the above solution was dispensed into each well of 96-well culture plates, and incubated for 24 hours (37° C., 5% CO2).
After removal of 50 μL of medium from each well, 50 μL of McCoy's 5A medium (serum-free) containing compound, of the present application was added to a final concentration of 0.01˜2 μM (0.001, 0.01, 0.1, 0.5, 1 or 2 μM), and the plates were incubated for 2 hours (37° C., 5% CO2).
10 μL of the McCoy's 5A medium (serum-free) containing human IL-4 (R&D Systems, Inc) was added to each well to achieve a final concentration of 40 ng/mL, and incubated for 8 hours (37° C., 5% CO2).
(§3) Medium was completely removed and plates were preserved at −80° C. until measurements.
(§4) Cell lysates were prepared by adding 40 μL of Passive Lysis Buffer (Promega Corporation) to each well.
(§5) 10 μL of each lysate was transferred to 96-well white plates. 50 μL of PicaGene L.T.2.0 (TOYO INK MFG. CO., LTD.) was added to each well, then, luminescence was measured after leaving for 10 minutes at room temperature.
(§6) 10 μL of each lysate was transferred to 96-well black plates. 100 μL of Z Buffer (preparation method will be explained later) was added to each well, and fluorescence was measured immediately.
(§7) 10 μL of each lysate was transferred to 96-well clear plates. 200 μL of protein assay reagent prepared from the BCA Protein Assay Kit (Pierce Biotechnology, Inc.) was added to each well, and, absorbance was measured after incubation for 30 minutes at 37° C.
(§8) For measurements of luminescence, fluorescence, and absorbance, microplate reader GENios (TECAN G.M.B.H.) was used.
(4) Calculation of Inhibition Rate
Luminescence values that show the degree of activation by IL-4 stimulation were normalized by β-gal values that show transfection efficiency. Using the normalized values, the following calculations were carried out using the luminescence values increased by IL-4 stimulation. Inhibition Rate(%)=[…] E: In the presence of the compound of the present application, increased luminescence value by IL-4 stimulation C: Without the presence of the compound of the present application, increased luminescence value by IL-4 stimulation […]

[2] = test system: NF-κB; test: NF-κB inhibition test: pNFκB-Luc luciferase reporter in U2-OS cells stimulated with human TNF α; type: cell-based; conditions: human TNF α 10 ng/mL; for Inhibition Rate of NF-κB (%) / inhibition at 2 µM: compound 2 μM, 8 hours; for inhibition at 2 µM: read-out: Inhibition Rate of NF-κB (%); for IC50: from inhibition rates at 1, 0.1, 0.01 and 0.001 μM, read-out: IC50 against activation of NF-κB
Protocol: (1) Transfection to U2-OS Cells and Inhibition Test of Activation
U2-OS cells were seeded at 2×10^4 cells/well in 96-well culture plate, and transfection was carried out using FuGENE 6 Transfection Reagent (Roche Diagnostics GmbH). The procedures of the transfection are shown below.
11 μg of reporter plasmid (pNFκB-Luc; Stratagene Corporation) and 1.1 μg of pCMV β (CLONTECH Laboratories, Inc.) were mixed in 1.1 mL of OPTI-MEM I medium (GIBCO BRL) (solution (A)).
[…] of FuGENE 6 Transfection Reagent was mixed in 1.1 mL of OPTI-MEM I medium (solution (B)).
as §1
To this transfection solution, U2-OS cell suspension (11 mL) in McCoy's 5A medium (GIBCO BRL) containing 10% Fetal Bovine Serum (FBS; GIBCO BRL) at […] was added and well mixed.
as §2
After removal of 50 μL of medium from each well, 50 μL of McCoy's 5A medium (serum-free) containing compound of the present application was added to a final concentration of 0.01˜2 μM (0.001, 0.01, 0.1, 0.5, 1 or 2 μM), and the plates were incubated for 2 hours (37° C., 5% CO2).
10 μL of the McCoy's 5A medium (serum-free) containing human TNF α (PEPROTECH EC Ltd.) was added to each well to achieve a final concentration of 10 ng/mL, and incubated for 8 hours (37° C., 5% CO2).
as §3, §4, §5, §6, §7, §8
(3) Calculation of Inhibition Rate
Luminescence values that show the degree of activation by TNF α stimulation were normalized by β-gal values that show transfection efficiency. Using the normalized values, the following calculation was carried out using the luminescence values that increased by TNF α stimulation. Inhibition Rate(%)=[…] E: In the presence of the compound of the present application, increased luminescence values by TNF α stimulation C: Without the presence of the compound of the present application, increased luminescence values by TNF α, stimulation
The values of protein assay by BCA reagent were used for a simple assessment of cytotoxicity, and not used for the calculation of inhibition rates.
NF-κB Inhibition Rates are shown below. The values in parentheses in the table represent the concentration of the compound of the present application.
NF-κB inhibition rates where the concentrations of the compound of the present application were 1, 0.1, 0.01 and 0.001 μM were calculated, and the 50% inhibitory concentrations (IC50) of the compounds of the present application against activation of NF-κB were evaluated.

| SMILES | Inhibition Rate of STAT6 (%) [1] | Inhibition Rate of NF-κB (%) [2] | IC50 [1] | IC50 [2] | further results |
| --- | --- | --- | --- | --- | --- |
| CCC1CN(c2ccc(NC(=O)c3cc(Cl)ccc3O)cc2F)CCN1.Cl (stereo not shown) [compound 72] | 37 (2 μM) % | 41 (2 μM) % |  |  |  |
| O=C(Nc1ccc(N2CCCCC2)c(Cl)c1)c1cc(Cl)ccc1O [compound 8] | 93 (2 μM) % | 61 (2 μM) % |  |  |  |
| CNC1CCN(c2ccc(NC(=O)c3cc(Cl)ccc3O)cc2F)CC1 [Compound 68] |  |  |  |  | inhibition at 2 µM ([1]; U2OS): 74%; IC50 ([1]; U2OS): 40.4 nM; inhibition at 2 µM ([2]; U2OS): 71%; IC50 ([2]; U2OS): 63.6 nM |
| O=C(Nc1ccc(N2CCCNCC2)c(F)c1)c1cc(Br)ccc1O [compound 87] | 91 (2 μM) % | 93 (2 μM) % | 18.3 nM | 11.7 nM |  |
| Cl.O=C(Nc1ccc(OC2CCNC2)c(F)c1)c1cc(Cl)ccc1O (stereo not shown) [compound 55] | 35 (2 μM) % | 16 (2 μM) % |  |  |  |
| CCN1CCCN(c2ccc(NC(=O)c3cc(Cl)ccc3O)cc2F)CC1 [compound 53] | 57 (2 μM) % | 45 (2 μM) % |  |  |  |
| Cc1ccc(O)c(C(=O)Nc2ccc(N3CCN(C)CC3)c(F)c2)c1.Cl [compound 57] | 75 (2 μM) % | 62 (2 μM) % |  |  |  |
| Cl.O=C(Nc1ccc(N2CCCNCC2)c(C(F)(F)F)c1)c1cc(Cl)ccc1O [compound 76] | 95 (2 μM) % | 94 (2 μM) % | 32.9 nM | 20 nM |  |
| NC(=O)C1CCCN(c2ccc(NC(=O)c3cc(Cl)ccc3O)cc2F)C1 (stereo not shown) [compound 48] | 42 (2 μM) % | 40 (2 μM) % |  |  |  |
| CN1CCN(c2ccc(NC(=O)c3cc(Cl)ccc3O)cc2C#N)CC1 [compound 79] | 59 (2 μM) % | 59 (2 μM) % |  |  |  |
| CN1CCN(c2ccc(NC(=O)c3cc(Br)ccc3O)cc2F)CC1 [compound 69] | 79 (2 μM) % | 76 (2 μM) % | 10.6 nM | 30.3 nM |  |
| O=C(Nc1ccc(N2CCCNCC2)c(F)c1)c1ccc(Cl)cc1O [compound 80] | 91 (2 μM) % | 89 (2 μM) % | 2.23 nM | 8.11 nM |  |
| CN1CCCC(COc2ccc(NC(=O)c3cc(Cl)ccc3O)cc2F)C1 (stereo not shown) [compound 50] | 43 (2 μM) % | 45 (2 μM) % |  |  |  |
| CCC1CNCCN1c1ccc(NC(=O)c2cc(Cl)ccc2O)cc1F.Cl (stereo not shown) [compound 89] | 62 (2 μM) % | 62 (2 μM) % |  |  |  |
| CN(C)C1CCN(c2ccc(NC(=O)c3cc(Cl)ccc3O)cc2F)CC1 [Compound 78] |  |  |  |  | inhibition at 2 µM ([1]; U2OS): 46%; inhibition at 2 µM ([2]; U2OS): 49% |
| O=C(Nc1ccc(OC2CCNCC2)c(F)c1)c1cc(Cl)ccc1O [compound 31] | 93 (2 μM) % | 92 (2 μM) % | 6.37 nM | 12.2 nM |  |
| Cc1cc(NC(=O)c2cc(Cl)ccc2O)ccc1OC1CCN(C)CC1 [compound 25] | 80 (2 μM) % | 60 (2 μM) % |  |  |  |
| NC1CCN(c2ccc(NC(=O)c3cc(Cl)ccc3O)cc2F)C1 (stereo not shown) [compound 42] | 41 (2 μM) % | 24 (2 μM) % |  |  |  |
| Cc1cc(NC(=O)c2cc(Cl)ccc2O)ccc1N1CCN(C)CC1.Cl [compound 18] | 79 (2 μM) % | 67 (2 μM) % | 91.9 nM | 147 nM |  |
| CN1CCN(c2ccc(NC(=O)c3cc(C#N)ccc3O)cc2F)CC1.Cl [compound 90] | 11 (2 μM) % | 18 (2 μM) % |  |  |  |
| CN1CCN(c2ccc(NC(=O)c3cc(Cl)ccc3O)cc2Cl)CC1.Cl [compound 17] | 96 (2 μM) % | 90 (2 μM) % | 82.9 nM | 113 nM |  |
